Our source for the mortality values is patent EP3696177A1, “HETEROCYCLIC COMPOUNDS FOR THE CONTROL OF INVERTEBRATE PESTS” (BASF SE, priority 2019, dated 2020).

The subject of one experiment is dichromothrips corbetti. Nature of the experiment: Orchid thrips floral-immersion test. The experiment is classed as in vivo. Conditions: 72 h, read-out: mortality in comparison with untreated controls. The procedure: Dichromothrips corbetti adults used for bioassay are obtained from a colony maintained continu-ously under laboratory conditions. For testing purposes, the test compound is diluted in a 1:1 mix-ture of acetone:water (vol:vol), plus Kinetic at a rate of 0.01% v/v.
Thrips potency of each compound is evaluated by using a floral-immersion technique. Each orchid petal is dipped into treatment solution and allowed to dry in Petri dishes. Treated petals are placed into individual re-sealable plastic along with about 20 adult thrips. All test arenas are held under dark condition and a temperature of about 28°C for duration of the assay. The percent mor-tality is recorded 72 hours after treatment.
Consider `CN1COC(CNC(=O)c2ccc(C3=NOC(c4cc(Cl)c(F)c(Cl)c4)(C(F)(F)F)C3)c3c2CCC3)C1=O` (centres unmarked) [Compound I-3-1], for which the mortality at 300 ppm is more than 75%.

Take `CCN1C(=O)SC(NC(=O)c2ccc(C3=NOC(c4cc(Cl)cc(Cl)c4)(C(F)(F)F)C3)cc2C)C1=O` (centres unmarked) [Compound I-1-5]: the mortality at 300 ppm was more than 75%.

In a further experiment the test system is Plutella xylostella. Briefly: Diamond back moth (Plutella xylostella) cabbage leaf disc dip test. The experiment is classed as in vivo. Conditions: foliar, 72 h, read-out: mortality in comparison with untreated controls. As to the method: The active compound is dissolved at the desired concentration in a mixture of 1:1 (vol:vol) distilled water: acetone. Surfactant (Kinetic) is added at a rate of 0.01% (vol/vol). The test solution is pre-pared at the day of use.
Cabbage leaf discs (60mm in diameter) are dipped in test solution and air-dried. Treated leaves are placed in petri dishes lined with moistened filter paper and inoculated with ten 3rd instar larvae. Mortality is recorded 72 hours after treatment. Feeding damage is also recorded using a scale of 0-100%.
`CN1COC(CNC(=O)c2ccc(C3=NOC(c4cc(Cl)c(F)c(Cl)c4)(C(F)(F)F)C3)c3c2CCC3)C1=O` (centres unmarked) [Compound I-3-1]: the mortality at 300 ppm was more than 75%.

As to `CCN1C(=O)SC(NC(=O)c2ccc(C3=NOC(c4cc(Cl)cc(Cl)c4)(C(F)(F)F)C3)cc2C)C1=O` (centres unmarked) [Compound I-1-5], the mortality at 300 ppm was more than 75%.

In another experiment the test system is Nephotettix virescens. Nature of the experiment: Rice green leafhopper (Nephotettix virescens) spray test on rice seedlings. The experiment is classed as in vivo. The note with it: adults, after 72 hours, read-out: mortality in comparison with untreated controls. The procedure: Four to five-week old rice seedlings with cut upper leaf portion are cleaned and washed 24 hours before spraying. The active compounds are formulated in 1:1 acetone:water (vol:vol), and 0.01% vol/vol surfactant (Kinetic) is added. Potted rice seedlings are sprayed with 5-6 ml test solution, air dried, covered with Mylar cages and inoculated with 10 adults. Treated rice plants are kept at about 28-29°C and relative humidity of about 50-60%. Percent mortality is recorded after 72 hours.
In the case of `CN1COC(CNC(=O)c2ccc(C3=NOC(c4cc(Cl)c(F)c(Cl)c4)(C(F)(F)F)C3)c3c2CCC3)C1=O` (centres unmarked) [Compound I-3-1], the mortality at 300 ppm was more than 75%.

Take `CCN1C(=O)SC(NC(=O)c2ccc(C3=NOC(c4cc(Cl)cc(Cl)c4)(C(F)(F)F)C3)cc2C)C1=O` (centres unmarked) [Compound I-1-5]: the mortality at 300 ppm was more than 75%.

In another experiment the test system is Nezara viridula. Nature of the experiment: Green soldier stink bug (Nezara viridula) soybean pod spray test. The experiment is classed as in vivo. Conditions: 120 h, late 3rd instar N. viridula, after 5 days, read-out: mortality in comparison with untreated controls. As to the method: The active compound is dissolved at the desired concentration in a mixture of 1:1 (vol:vol) distilled water: aceteone. Surfactant (Kinetic) is added at a rate of 0.01% (vol/vol).The test solution is prepared at the day of use.
Soybean pods are placed in 90 x 50 mm glass Petri dishes lined with moistened filter paper and inoculated with ten late 3rd instar N. viridula. Using a hand atomizer, an approximately 2 ml solution is sprayed into each Petri dish. Treated set-up is kept at about 25-26°C and relative humidity of about 65-70%. Percent mortality is recorded after 5 days.
Regarding `CN1COC(CNC(=O)c2ccc(C3=NOC(c4cc(Cl)c(F)c(Cl)c4)(C(F)(F)F)C3)c3c2CCC3)C1=O` (centres unmarked) [Compound I-3-1], the mortality at 300 ppm is more than 75%.

On to `CCN1C(=O)SC(NC(=O)c2ccc(C3=NOC(c4cc(Cl)cc(Cl)c4)(C(F)(F)F)C3)cc2C)C1=O` (centres unmarked) [Compound I-1-5], for which the mortality at 300 ppm was more than 75%.

The subject of the next experiment is Megoura viciae. Nature of the experiment: Vetch aphid (Megoura viciae) broad bean leaf disk test. Conditions: foliar, 120 h, read-out: mortality in comparison with untreated controls. Type of experiment: in vivo. The procedure: For evaluating control of vetch aphid (Megoura viciae) through contact or systemic means the test unit consisted of 24-well-microtiter plates containing broad bean leaf disks.
The compounds were formulated using a solution containing 75% v/v water and 25% v/v DMSO. Different concentrations of formulated compounds were sprayed onto the leaf disks at 2.5 µl, us-ing a custom built micro atomizer, at two replications.
After application, the leaf disks were air-dried and 5 - 8 adult aphids placed on the leaf disks in-side the microtiter plate wells. The aphids were then allowed to suck on the treated leaf disks and incubated at about 23 + 1°C and about 50 + 5 % relative humidity for 5 days. Aphid mortality and fecundity was then visually assessed.
For `CN1COC(CNC(=O)c2ccc(C3=NOC(c4cc(Cl)c(F)c(Cl)c4)(C(F)(F)F)C3)c3c2CCC3)C1=O` (centres unmarked) [Compound I-3-1], the mortality at 2500 ppm is more than 75%.

In the case of `CCN1C(=O)SC(NC(=O)c2ccc(C3=NOC(c4cc(Cl)cc(Cl)c4)(C(F)(F)F)C3)cc2C)C1=O` (centres unmarked) [Compound I-1-5], the mortality at 2500 ppm was more than 75%.

In a further experiment the test system is Myzus persicae. Briefly: Green peach aphid (Myzus persicae) artificial diet/membrane systemic test. Type of experiment: in vivo. The note with it: 72 h, read-out: mortality in comparison with untreated controls. The text has this:
For evaluating control of green peach aphid (Myzus persicae) through systemic means the test unit consisted of 96-well-microtiter plates containing liquid artificial diet under an artificial membrane.
The compounds were formulated using a solution containing 75% v/v water and 25% v/v DMSO. Different concentrations of formulated compounds were pipetted into the aphid diet, using a cus-tom built pipetter, at two replications.
After application, 5 - 8 adult aphids were placed on the artificial membrane inside the microtiter plate wells. The aphids were then allowed to suck on the treated aphid diet and incubated at about 23 + 1°C and about 50 + 5 % relative humidity for 3 days. Aphid mortality and fecundity was then visually assessed.
With `CN1COC(CNC(=O)c2ccc(C3=NOC(c4cc(Cl)c(F)c(Cl)c4)(C(F)(F)F)C3)c3c2CCC3)C1=O` (centres unmarked) [Compound I-3-1], the mortality at 2500 ppm is more than 75%.

As for `CCN1C(=O)SC(NC(=O)c2ccc(C3=NOC(c4cc(Cl)cc(Cl)c4)(C(F)(F)F)C3)cc2C)C1=O` (centres unmarked) [Compound I-1-5], the mortality at 2500 ppm was more than 75%.

Another experiment has as its system Anthonomus grandis. Briefly: Boll weevil (Anthonomus grandis) insect diet microtiter plate test. The experiment is classed as in vivo. Conditions: 120 h, read-out: mortality in comparison with untreated controls (egg and larval mortality). The procedure: For evaluating control of boll weevil (Anthonomus grandis) the test unit consisted of 96-well-microtiter plates containing an insect diet and 5-10 A. grandis eggs.
The compounds were formulated using a solution containing 75% v/v water and 25% v/v DMSO. Different concentrations of formulated compounds were sprayed onto the insect diet at 5 µl, using a custom built micro atomizer, at two replications.
After application, microtiter plates were incubated at about 25 + 1°C and about 75 + 5 % relative humidity for 5 days. Egg and larval mortality was then visually assessed.
Consider `CN1COC(CNC(=O)c2ccc(C3=NOC(c4cc(Cl)c(F)c(Cl)c4)(C(F)(F)F)C3)c3c2CCC3)C1=O` (centres unmarked) [Compound I-3-1], for which the mortality at 2500 ppm was more than 75%.

Turning to `CCN1C(=O)SC(NC(=O)c2ccc(C3=NOC(c4cc(Cl)cc(Cl)c4)(C(F)(F)F)C3)cc2C)C1=O` (centres unmarked) [Compound I-1-5], the mortality at 2500 ppm was more than 75%.

Another experiment concerns Tetranychus kanzawai. Nature of the experiment: Red spider mite (Tetranychus kanzawai) spray test on cowpea beans. The experiment is classed as in vivo. Conditions: topical, 72 h, read-out: mortality in comparison with untreated controls. As to the method:
The active compound is dissolved at the desired concentration in a mixture of 1:1 (vol:vol) distilled water: acetone. Add surfactant (Kinetic) is added at a rate of 0.01% (vol/vol). The test solution is prepared at the day of use.
Potted cowpea beans of 4-5 days of age are cleaned with tap water and sprayed with 1-2 ml of the test solution using air driven DeVilbiss® hand atomizer at 20- 30 psi (≈ 1,38 to 2,07 bar). The treated plants are allowed to air dry and afterwards inoculated with 30 or more mites by clipping a cassava leaf section from rearing population. Treated plants are placed inside a holding room at about 25-26°C and about 65-70% relative humidity. Estimate percent mortality is assessed 72 hours after treatment.
For `CN1COC(CNC(=O)c2ccc(C3=NOC(c4cc(Cl)c(F)c(Cl)c4)(C(F)(F)F)C3)c3c2CCC3)C1=O` (centres unmarked) [Compound I-3-1], the mortality at 300 ppm was more than 75%.

In the case of `CCN1C(=O)SC(NC(=O)c2ccc(C3=NOC(c4cc(Cl)cc(Cl)c4)(C(F)(F)F)C3)cc2C)C1=O` (centres unmarked) [Compound I-1-5], the mortality at 300 ppm is more than 75%.

Another experiment has as its system Heliothis virescens. Briefly: Tobacco budworm (Heliothis virescens) insect diet microtiter plate test. The experiment is classed as in vivo. Conditions: 120 h, read-out: mortality in comparison with untreated controls (egg and larval mortality). As to the method: For evaluating control of tobacco budworm (Heliothis virescens) the test unit consisted of 96-well-microtiter plates containing an insect diet and 15-25 H. virescens eggs.
The compounds were formulated using a solution containing 75% v/v water and 25% v/v DMSO. Different concentrations of formulated compounds were sprayed onto the insect diet at 10 µl, us-ing a custom built micro atomizer, at two replications.
After application, microtiter plates were incubated at about 28 + 1°C and about 80 + 5 % relative humidity for 5 days. Egg and larval mortality was then visually assessed.
For `CN1COC(CNC(=O)c2ccc(C3=NOC(c4cc(Cl)c(F)c(Cl)c4)(C(F)(F)F)C3)c3c2CCC3)C1=O` (centres unmarked) [Compound I-3-1], the mortality at 2500 ppm was more than 75%.

For the molecule `CCN1C(=O)SC(NC(=O)c2ccc(C3=NOC(c4cc(Cl)cc(Cl)c4)(C(F)(F)F)C3)cc2C)C1=O` (centres unmarked) [Compound I-1-5], the mortality at 2500 ppm was more than 75%.

The next experiment relates to Aedes aegypti. Nature of the experiment: whole plant or invertebrate. Type of experiment: in vivo. Conditions: 48 h, A. aegypti larvae, incubated 2 days, read-out: mortality in comparison with untreated controls (larval mortality). The procedure: For evaluating control of yellow fever mosquito (Aedes aegypti) the test unit consisted of 96-well-microtiter plates containing 200µl of tap water per well and 5-15 freshly hatched A. aegypti larvae.
The active compounds were formulated using a solution containing 75% (v/v) water and 25% (v/v) DMSO. Different concentrations of formulated compounds or mixtures were sprayed onto the insect diet at 2.5µl, using a custom built micro atomizer, at two replications.
After application, microtiter plates were incubated at 28 + 1°C, 80 + 5 % RH for 2 days. Larval mortality was then visually assessed.
As for `CN1COC(CNC(=O)c2ccc(C3=NOC(c4cc(Cl)c(F)c(Cl)c4)(C(F)(F)F)C3)c3c2CCC3)C1=O` (centres unmarked) [Compound I-3-1], the mortality at 2500 ppm was more than 75%.

On to `CCN1C(=O)SC(NC(=O)c2ccc(C3=NOC(c4cc(Cl)cc(Cl)c4)(C(F)(F)F)C3)cc2C)C1=O` (centres unmarked) [Compound I-1-5], for which the mortality at 2500 ppm is more than 75%.

Another experiment deals with Caenorhabditis elegans. Briefly: Caenorhabditis elegans liquid diet microtiter plate test. The experiment is classed as in vivo. The note with it: 96 h, read-out: mortality in comparison with untreated controls (nematode motility (mortality)). As to the method: For evaluating control of Caenorhabditis elegans through contact or systemic means the test unit consisted of 96-well-microtiter plates containing a liquid diet.
The compounds or mixtures were formulated using a solution containing 75% water and 25% DMSO. Different concentrations of formulated compounds were sprayed into the microtiter plate wells at 5µl per well, using a custom built micro atomizer, at two replications. Mixed instar 60-100 C. elegans were transferred into the micro-titer plate wells. After application, the nematodes were incubated at 18 + 1°C, 70 + 5 % RH for 4 days. Nematode motility (mortality) was then visually assessed.
For the molecule `CN1COC(CNC(=O)c2ccc(C3=NOC(c4cc(Cl)c(F)c(Cl)c4)(C(F)(F)F)C3)c3c2CCC3)C1=O` (centres unmarked) [Compound I-3-1], the mortality at 2500 ppm was more than 75%.

The next experiment deals with Aphis craccivora. Briefly: Cowpea aphid (Aphis craccivora) spray test on potted cowpea plants. The experiment is classed as in vivo. Conditions: aphids of various stages, after 72 hours, read-out: mortality in comparison with untreated controls. The procedure:
The active compound is dissolved at the desired concentration in a mixture of 1:1 (vol: vol) distilled water: acetone. Surfactant (Kinetic) is added at a rate of 0.01% (vol/vol). The test solution is prepared at the day of use.
Potted cowpea plants are colonized with approximately 30 - 50 aphids of various stages by man-ually transferring aphid-infested leaf clippings 24 hours before application. Plants are sprayed with the test solutions using a DeVilbiss® hand atomizer at 20- 30 psi (≈ 1.38 to 2.07 bar) after the pest population has been checked. Treated plants are maintained on light carts at about 25- 26°C. Estimate percent mortality is assessed after 72 hours.
On to `CN1COC(CNC(=O)c2ccc(C3=NOC(c4cc(Cl)c(F)c(Cl)c4)(C(F)(F)F)C3)c3c2CCC3)C1=O` (centres unmarked) [Compound I-3-1], for which the mortality at 300 ppm was more than 75%.

`CCN1C(=O)SC(NC(=O)c2ccc(C3=NOC(c4cc(Cl)cc(Cl)c4)(C(F)(F)F)C3)cc2C)C1=O` (centres unmarked) [Compound I-1-5]: the mortality at 300 ppm was more than 75%.

One may read the mortality as the share of the test organisms that died.
